Laboratory results from ChEMBL document CHEMBL3046896, “Synthesis and antitumor screening of new series of pyrimido-[4,5-b]quinolines and [1,2,4]triazolo[2,3:3,4]pyrimido[6,5-b]quinolines” (Med Chem Res, 2013).
Active and inactive are the calls of the source. The rule behind the calls is not given here.

How the values were obtained:
[1] = Displacement of methyl green from DNA after 24 hr by spectrophotometric analysis
[2] = Binding affinity to DNA at 5 mg/ml by TLC analysis
MCF7 = assay: Cytotoxicity against Homo sapiens (human) MCF7 cells after 48 hr by SRB assay; assay type: functional, cell-based; details: MCF7, 48 h

Question: With `COc1ccc(C2C3=C(CCCC3)Nc3[nH]c(=S)[nH]c(=S)c32)cc1OC` (stereo not drawn) as the compound, how does the IC50 [1] read?
Answer: The IC50 was 38 µM.

Question: And the Activity [2]?
Answer: Its Activity is “Active”.

Question: What about the IC50 (MCF7) of the same compound?
Answer: Its IC50 is over 10 µM.

Question: With BLEOMYCIN as the compound, how does the IC50 [1] read?
Answer: Its IC50 is 10 µM.

Question: With `Cc1nc2c(c(=O)[nH]1)C(c1cccc(Br)c1)C1=C(CCCC1)N2` (stereo not drawn) as the compound, how does the IC50 [1] read?
Answer: Its IC50 is 32 µM.

Question: What about the Activity [2] of the same compound?
Answer: Its Activity is “Active”.

Question: And the IC50 (MCF7)?
Answer: The IC50 was 4.03 µM.

Question: With `COc1ccc(/C=N/n2cnc3c(c2=N)C(c2ccc(OC)c(OC)c2)C2=C(CCCC2)N3)cc1OC` (stereo not drawn) as the compound, how does the IC50 [1] read?
Answer: The IC50 was 38 µM.

Question: And the Activity [2]?
Answer: The Activity was “Active”.

Question: What about the IC50 (MCF7) of the same compound?
Answer: The IC50 was 6.17 µM.

Question: For `N=c1c2c([nH]c(=S)n1-c1ccccc1)NC1=C(CCCC1)C2c1ccc(Cl)cc1` (stereo not drawn), which IC50 [1] is on record?
Answer: Its IC50 is 55 µM.

Question: And the Activity [2]?
Answer: Its Activity is “Active”.

Question: What does the source list for `Cc1nc2c(c(=O)[nH]1)C(c1ccccc1)C1=C(CCCC1)N2` (stereo not drawn)?
Answer: IC50 [1]: 22 µM; Activity [2]: Active; IC50 (MCF7): 4.97 µM

Question: With `Nc1ncnc2c1C(c1ccc(Cl)cc1)C1=C(CCCC1)N2` (stereo not drawn) as the compound, how does the IC50 [1] read?
Answer: Its IC50 is 25 µM.

Question: What about the Activity [2] of the same compound?
Answer: Its Activity is “Active”.

Question: What about the IC50 (MCF7) of the same compound?
Answer: Its IC50 is 3.89 µM.

Question: Which IC50 [1] does the source give for `COc1ccc(C2C3=C(CCCC3)Nc3nc(C)[nH]c(=O)c32)cc1OC` (stereo not drawn) here?
Answer: Its IC50 is 25 µM.

Question: What about the Activity [2] of the same compound?
Answer: Its Activity is “Active”.

Question: And the IC50 (MCF7)?
Answer: Its IC50 is over 10 µM.

Question: What does the source list for `Brc1cccc(C2C3=C(CCCC3)Nc3ncn4ncnc4c32)c1` (stereo not drawn)?
Answer: IC50 [1]: 90 µM; Activity [2]: inactive; IC50 (MCF7): > 10 µM

Question: What does the source list for `COc1ccc(C2C3=C(CCCC3)Nc3[nH]c(=S)n(-c4ccccc4)c(=N)c32)cc1OC` (stereo not drawn)?
Answer: IC50 [1]: 40 µM; Activity [2]: Active; IC50 (MCF7): 5.3 µM

Question: With `COc1ccc(C2C3=C(CCCC3)Nc3ncnc(N)c32)cc1OC` (stereo not drawn) as the compound, how does the IC50 [1] read?
Answer: The IC50 was 12 µM.

Question: And the Activity [2]?
Answer: Its Activity is “Active”.

Question: And the IC50 (MCF7)?
Answer: The IC50 was 3.62 µM.

Question: What does the source list for `COc1ccc(/C=N/n2cnc3c(c2=N)C(c2ccccc2)C2=C(CCCC2)N3)cc1OC` (stereo not drawn)?
Answer: IC50 [1]: 32 µM; Activity [2]: Active; IC50 (MCF7): 5.37 µM

Question: Which results are given for `CCOC(=O)/N=c1/c2c(ncn1NC(=O)OCC)NC1=C(CCCC1)C2c1ccccc1` (stereo not drawn)?
Answer: IC50 [1]: 40 µM; Activity [2]: Active; IC50 (MCF7): 5.44 µM

Question: Which IC50 [1] does the source give for `S=c1[nH]c2c(c(=S)[nH]1)C(c1ccccc1)C1=C(CCCC1)N2` (stereo not drawn) here?
Answer: Its IC50 is 72 µM.

Question: What about the Activity [2] of the same compound?
Answer: The Activity was “Active”.

Question: For `O=c1[nH]cnc2c1C(c1ccccc1)C1=C(CCCC1)N2` (stereo not drawn), which IC50 [1] is on record?
Answer: The IC50 was 88 µM.

Question: And the Activity [2]?
Answer: Its Activity is “inactive”.

Question: What about the IC50 (MCF7) of the same compound?
Answer: Its IC50 is over 10 µM.

Question: Which results are given for `N=c1c2c(ncn1/N=C/c1ccc(Cl)cc1)NC1=C(CCCC1)C2c1ccc(Cl)cc1` (stereo not drawn)?
Answer: IC50 [1]: 70 µM; Activity [2]: Active; IC50 (MCF7): > 10 µM

Question: With `CCCCn1c(=S)[nH]c2c(c1=N)C(c1ccccc1)C1=C(CCCC1)N2` (stereo not drawn) as the compound, how does the IC50 [1] read?
Answer: Its IC50 is 72 µM.

Question: And the Activity [2]?
Answer: The Activity was “Active”.

Question: What about the IC50 (MCF7) of the same compound?
Answer: Its IC50 is 5.7 µM.

Question: Which IC50 [1] does the source give for `N=c1c2c([nH]c(=S)n1-c1ccccc1)NC1=C(CCCC1)C2c1ccccc1` (stereo not drawn) here?
Answer: The IC50 was 25 µM.

Question: What about the Activity [2] of the same compound?
Answer: The Activity was “Active”.

Question: What about the IC50 (MCF7) of the same compound?
Answer: The IC50 was 6.98 µM.

Question: With `S=c1[nH]c2c(c(=S)[nH]1)C(c1cccc(Br)c1)C1=C(CCCC1)N2` (stereo not drawn) as the compound, how does the IC50 [1] read?
Answer: Its IC50 is 76 µM.

Question: And the Activity [2]?
Answer: Its Activity is “Active”.

Question: And the IC50 (MCF7)?
Answer: The IC50 was 4.5 µM.

Question: With `CCCCn1c(=S)[nH]c2c(c1=N)C(c1ccc(Cl)cc1)C1=C(CCCC1)N2` (stereo not drawn) as the compound, how does the IC50 [1] read?
Answer: The IC50 was 88 µM.

Question: And the Activity [2]?
Answer: Its Activity is “inactive”.

Question: Which results are given for `COc1ccc(C2C3=C(CCCC3)Nc3ncn(/N=C/c4ccc(Cl)cc4)c(=N)c32)cc1OC` (stereo not drawn)?
Answer: IC50 [1]: 14 µM; Activity [2]: Active; IC50 (MCF7): 3.76 µM

Question: For `N=c1c2c(ncn1/N=C/c1ccc(Cl)cc1)NC1=C(CCCC1)C2c1ccccc1` (stereo not drawn), which IC50 [1] is on record?
Answer: Its IC50 is 88 µM.

Question: What about the Activity [2] of the same compound?
Answer: Its Activity is “inactive”.

Question: For `c1ccc(C2C3=C(CCCC3)Nc3ncn4ncnc4c32)cc1` (stereo not drawn), which IC50 [1] is on record?
Answer: The IC50 was 88 µM.

Question: What about the Activity [2] of the same compound?
Answer: Its Activity is “inactive”.

Question: What about the IC50 (MCF7) of the same compound?
Answer: The IC50 was over 10 µM.
